In one test the target is T1, GST-tagged truncated human mutant G2019S LRRK2 (Homo sapiens, UniProt Q5S007, G2019S).
T1 construct: GST-tagged truncated human mutant G2019S LRRK2; purchased Life Technologies Corporation (Carlsbad, CA)
T1 sequence (Q5S007 970-2527 G2019S limits assumed): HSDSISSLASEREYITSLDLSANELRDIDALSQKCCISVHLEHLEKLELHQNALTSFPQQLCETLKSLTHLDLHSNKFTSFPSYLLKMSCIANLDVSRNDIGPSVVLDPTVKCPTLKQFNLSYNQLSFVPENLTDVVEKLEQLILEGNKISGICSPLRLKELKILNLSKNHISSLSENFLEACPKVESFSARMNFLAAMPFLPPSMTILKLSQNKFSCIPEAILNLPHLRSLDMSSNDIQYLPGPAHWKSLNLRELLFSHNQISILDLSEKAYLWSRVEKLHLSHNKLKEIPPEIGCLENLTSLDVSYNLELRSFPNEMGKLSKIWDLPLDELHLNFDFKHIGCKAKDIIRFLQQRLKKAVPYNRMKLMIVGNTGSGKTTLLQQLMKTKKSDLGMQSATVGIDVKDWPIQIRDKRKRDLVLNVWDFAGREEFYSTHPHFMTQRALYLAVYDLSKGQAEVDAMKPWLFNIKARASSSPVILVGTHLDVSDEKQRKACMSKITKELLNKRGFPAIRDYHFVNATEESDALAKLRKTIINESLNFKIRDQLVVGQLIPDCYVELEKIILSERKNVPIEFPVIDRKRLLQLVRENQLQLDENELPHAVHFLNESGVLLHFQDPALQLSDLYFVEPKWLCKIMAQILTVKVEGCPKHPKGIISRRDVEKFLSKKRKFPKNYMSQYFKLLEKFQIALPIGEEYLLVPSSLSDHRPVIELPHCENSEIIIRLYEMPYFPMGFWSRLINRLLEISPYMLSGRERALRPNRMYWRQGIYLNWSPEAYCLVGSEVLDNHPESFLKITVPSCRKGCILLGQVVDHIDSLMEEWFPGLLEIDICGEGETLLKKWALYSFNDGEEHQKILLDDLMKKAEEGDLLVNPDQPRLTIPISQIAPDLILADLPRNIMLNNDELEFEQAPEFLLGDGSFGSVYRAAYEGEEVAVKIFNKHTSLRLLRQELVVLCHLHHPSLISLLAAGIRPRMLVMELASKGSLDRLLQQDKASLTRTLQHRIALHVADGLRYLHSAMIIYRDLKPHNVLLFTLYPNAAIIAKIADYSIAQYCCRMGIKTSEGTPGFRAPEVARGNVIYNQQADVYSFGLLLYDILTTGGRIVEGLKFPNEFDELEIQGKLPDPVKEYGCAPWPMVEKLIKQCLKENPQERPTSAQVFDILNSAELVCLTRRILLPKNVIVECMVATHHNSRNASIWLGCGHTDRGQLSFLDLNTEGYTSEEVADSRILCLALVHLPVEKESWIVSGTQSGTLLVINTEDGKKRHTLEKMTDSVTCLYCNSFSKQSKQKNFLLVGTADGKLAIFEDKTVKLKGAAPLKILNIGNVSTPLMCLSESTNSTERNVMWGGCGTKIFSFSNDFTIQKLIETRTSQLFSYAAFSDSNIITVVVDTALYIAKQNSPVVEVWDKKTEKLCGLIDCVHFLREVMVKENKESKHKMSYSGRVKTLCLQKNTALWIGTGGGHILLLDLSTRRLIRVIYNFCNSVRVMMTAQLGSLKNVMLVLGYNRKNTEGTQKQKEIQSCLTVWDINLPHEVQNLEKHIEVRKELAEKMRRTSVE
The test can be described thus: LRRK2 G2019S Km ATP LanthaScreen assay. The following applies: 134 μM ATP (Km ATP), LRRKtide substrate, mean of several tests. It counts as biochemical. The method, then: Unless otherwise noted, all reactions are magnetically stirred. Unless otherwise noted, when diethyl ether is used in the experiments described below, it is Fisher ACS certified material and is stabilized with BHT. Unless otherwise noted, “concentrated” and/or “solvent removed under reduced pressure” means evaporating the solvent from a solution or mixture using a rotary evaporator or vacuum pump. Unless otherwise noted, flash chromatography is carried out on a Teledyne Isco (Lincoln, NE), Analogix (Burlington, WI), or Biotage (Stockholm, SWE) automated chromatography system using a commercially available cartridge as the column. Columns may be purchased from Teledyne Isco, Analogix, Biotage, Varian (Palo Alto, CA), or Supelco (Bellefonte, PA) and are usually filled with silica gel as the stationary phase. Reverse phase prep-HPLC conditions, where used, can be found at the end of each experimental section. Aqueous solutions were concentrated on a Genevac (Ipswich, ENG) or by freeze-drying/lyophilization. Unless otherwise noted, all LRRK2 pIC50 data presented in tables refers to the LRRK2 G2019S Km ATP LanthaScreen™ assay (Life Technologies Corp., Carlsbad, CA) that is described in the Biological Assay section.
Biological Assay: LRRK2 Km ATP LanthaScreen™ Assay
The LRRK2 kinase activity reported herein as IC50 values was determined with LanthaScreen™ technology from Life Technologies Corporation (Carlsbad, CA) using GST-tagged truncated human mutant G2019S LRRK2 in the presence of the fluorescein-labeled peptide substrate LRRKtide, also from Life Technologies. The data presented for the Km ATP LanthaScreen™ Assay represents mean IC50 values based on several test results and may have reasonable deviations depending on the specific conditions and reagents used. Assays were performed in the presence of 134 μM ATP (Km ATP). Upon completion, the assay was stopped and phosphorylated substrate detected with a terbium (Tb)-labeled anti-pERM antibody (cat. no. PV4898). The compound dose response was prepared by diluting a 10 mM stock of compound to a maximum concentration of 9.99 μM in 100% dimethylsulfoxide followed by custom fold serial dilution in dimethylsulfoxide nine times. Twenty nanoliters of each dilution was spotted via a Labcyte Echo onto a 384-well black-sided plate (Corning 3575) followed by 15 μl of a 1.25 nM enzyme solution in 1× assay buffer (50 mM Tris pH 8.5, 10 mM MgCl2, 0.01% Brij-35, 1 mM EGTA, 2 mM dithiothreitol, 0.05 mM sodium orthovanadate). Following a 15-minute incubation at room temperature, the kinase reaction was started with the addition of 5 μl of 400 nM fluorescein-labeled LRRKtide peptide substrate and 134 μM ATP solution in 1× assay buffer. The reaction was allowed to progress at ambient temperature for 90 minutes. The reaction was then stopped by the addition of 20 μl of TR-FRET Dilution Buffer (Life Technologies, Carlsbad, CA) containing 2 nM Tb-labeled anti-phospho LRRKtide antibody and 10 mM EDTA (Life Technologies, Carlsbad, CA). After an incubation of 1 hour at room temperature, the plate was read on an EnVision multimode plate reader (Perkin Elmer, Waltham, MA) with an excitation wavelength of 337 nm (Laser) and a reading emission at both 520 and 495 nm. Compound IC50s were interpolated from nonlinear regression best fits of the log of the final compound concentration, plotted as a function of the 520/495-nm emission ratio using Activity base. Abase uses a 4 parameter (4P) logistic fit based on the Levenberg-Marquardt algorithm.
For `CCC1C(C(=O)Nc2cc3cc(N4CCC(F)(C#N)CC4)c(Cl)cc3cn2)C1c1cnn(C)c1` (centres unmarked) [Ex-4.10], the “LRRK2 pIC50” value is on record as 7.29.

Staying with this test, now noted: 134 μM ATP (Km ATP), LRRKtide substrate, mean of several tests, read-out: LRRK2 pIC50 (converted).
Take `CCC1C(C(=O)Nc2cc3cc(N4CCN(C5(C)CCOC5)CC4)c(C)cc3cn2)C1c1cnn(C)c1` (single isomer, unassigned) [Ex-10.37, (1R,2R,3R, 1R,2S,3R, 1S,2R,3S, or 1S,2S,3S)-2-ethyl-N-[7-methyl-6-[4-((R or S)-3-methyltetrahydrofuran-3-yl)piperazin-4-ium-1-yl]-3-isoquinolyl]-3-(1-methylpyrazol-4-yl)cyclopropanecarboxamide]: the IC50 is 0.0813 nM.

As to `CC1COC(=O)N1c1ccc2cnc(NC(=O)C3CC3)cc2c1` (single isomer, unassigned) [Ex-4.1, (R or S)-N-(6-(4-methyl-2-oxooxazolidin-3-yl)isoquinolin-3-yl)cyclopropanecarboxamide], the IC50 is 3.47 nM.

As to `CC1(N2CCN(c3cc4cc(NC(=O)C5CC5c5ccccn5)ncc4cc3F)CC2)COCC1O` (single isomer, unassigned) [Ex-2.23, (1R,2R or 1S,2S)-N-[7-fluoro-6-[4-[(3R,4R or 3S,4S)-4-hydroxy-3-methyl-tetrahydrofuran-3-yl]piperazin-1-yl]-3-isoquinolyl]-2-(2-pyridyl)cyclopropanecarboxamide], the IC50 is 0.316 nM.

Regarding `Cc1cc2cnc(NC(=O)C3CCOC(C)(C)C3)cc2cc1N1CCN(C2(C)CCOC2)CC1` (single isomer, unassigned) [Ex-10.41, (4R or 4S)-2,2-dimethyl-N-[7-methyl-6-[4-((R or S)-3-methyltetrahydrofuran-3-yl)piperazin-1-yl]-3-isoquinolyl]tetrahydropyran-4-carboxamide], the IC50 is 0.309 nM.

For the compound `COCC1CCC1C(=O)Nc1cc2cc(N3CCN(C4(C)COCC4O)CC3)c(Cl)cc2cn1` (single isomer, unassigned) [Ex-1.25, (1R,2S or 1R,2R, or 1S,2S, or 1S,2R)-N-(7-chloro-6-(4-((3R,4R)-4-hydroxy-3-methyltetrahydrofuran-3-yl)piperazin-1-yl)isoquinolin-3-yl)-2-(methoxymethyl)cyclobutane-1-carboxamide], the IC50 is 0.158 nM.

`COC1COCC1(C)N1CCN(c2cc3cc(NC(=O)C4CC45CCOCC5)ncc3cc2Cl)CC1` (single isomer, unassigned) [Ex-5.4]: the IC50 was 28.8 nM.

Take `CC1C(C(=O)Nc2cc3cc(N4CCN(C5(C)COCC5O)CC4)c(Cl)cc3cn2)C1c1ccccn1` (single isomer, unassigned) [Ex-11.3, (1R,2R,3R, or 1R,2S,3R, or 1S,2R,3S, or 1S,2S,3S)-N-(7-chloro-6-(4-((3R,4R or 3S,4S)-4-hydroxy-3-methyltetrahydrofuran-3-yl)piperazin-1-yl)isoquinolin-3-yl)-2-methyl-3-(pyridin-2-yl)cyclopropane-1-carboxamide]: the IC50 was 0.0813 nM.

With `CC(C)Cn1nccc1C1CC1C(=O)Nc1cc2cc(N3CCN(C4(C)COCC4O)CC3)c(Cl)cc2cn1` (single isomer, unassigned) [Ex-10.20, (1R,2R or 1S,2S)-N-[7-chloro-6-[4-((3R,4R or 3S,4S)-4-hydroxy-3-methyl-tetrahydrofuran-3-yl)piperazin-1-yl]-3-isoquinolyl]-2-(2-isobutylpyrazol-3-yl)cyclopropanecarboxamide], the IC50 was 2.24 nM.

As to `O=C(Nc1cc2cc(N3CCN(C4COCC4O)CC3)c(Cl)cc2cn1)C1CC12CCOCC2` (single isomer, unassigned) [Ex-2.8, (R or S)-N-(7-chloro-6-(4-((3R,4R or 3S,4S)-4-hydroxytetrahydrofuran-3-yl)piperazin-1-yl)isoquinolin-3-yl)-6-oxaspiro[2.5]octane-1-carboxamide], the IC50 was 24 nM.

Turning to `CC12CC(C(=O)Nc3cc4cc(N5CCN(C6(C)COCC6O)CC5)c(Cl)cc4cn3)(CO1)C2` (single isomer, unassigned) [Ex-2.18, N-(7-chloro-6-(4-((3R,4R or 3S,4S)-4-hydroxy-3-methyltetrahydrofuran-3-yl)piperazin-1-yl)isoquinolin-3-yl)-1-methyl-2-oxabicyclo[2.1.1]hexane-4-carboxamide], the IC50 is 15.5 nM.

Consider `Cc1cc2cnc(NC(=O)C3CC34CCOC4)cc2cc1N1CCN(C2(C)COCC2O)CC1` (single isomer, unassigned) [Ex-6.3, (1R, 3S or 1S,3R, or 1R,3S, or 1S,3S)-N-(6-(4-((3R, 4R or 3S,4S)-4-hydroxy-3-methyltetrahydrofuran-3-yl)piperazin-1-yl)-7-methylisoquinolin-3-yl)-5-oxaspiro[2.4]heptane-1-carboxamide], for which the IC50 was 0.832 nM.

Consider `CC1(N2CCN(c3cc4cc(NC(=O)C5CCC5C#N)ncc4cc3Cl)CC2)COCC1F` (single isomer, unassigned) [Ex-10.68, (1R,2R or 1S,2S)-N-[7-chloro-6-[4-((3R,4R or 3S,4S)-4-fluoro-3-methyl-tetrahydrofuran-3-yl)piperazin-1-yl]-3-isoquinolyl]-2-cyano-cyclobutanecarboxamide], for which the IC50 is 0.0813 nM.

For `Cc1cc2cnc(NC(=O)C3CC34CCOC4)cc2cc1N1CCN(C2(C)COCC2O)CC1` (single isomer, unassigned) [Ex-6.9, (1R, 3S or 1S,3R, or 1R,3S, or 1S,3S)-N-(6-(4-((3R, 4R or 3S,4S)-4-hydroxy-3-methyltetrahydrofuran-3-yl)piperazin-1-yl)-7-methylisoquinolin-3-yl)-5-oxaspiro[2.4]heptane-1-carboxamide], the IC50 was 324 nM.

For the compound `CC1(N2CCN(c3cc4cc(NC(=O)C5CC5c5ccco5)ncc4cc3Cl)CC2)COCC1O` (single isomer, unassigned) [Ex-10.29, (1R,2R or 1S,2S)-N-[7-chloro-6-[4-((3R,4R or 3S,4S)-4-hydroxy-3-methyl-tetrahydrofuran-3-yl)piperazin-1-yl]-3-isoquinolyl]-2-(2-furyl)cyclopropanecarboxamide], the IC50 is 0.275 nM.

In the case of `Cc1cc2cnc(NC(=O)C3C(C)C3c3cnn(C)c3)cc2cc1N1CCN(C2(C)CCOC2)CC1` (single isomer, unassigned) [Ex-9.15], the IC50 is 0.316 nM.

In the case of `CC1(N2CCN(c3cc4cc(NC(=O)C5CC5C5CCOCC5)ncc4cc3Cl)CC2)COCC1F` (single isomer, unassigned) [Ex-10.69, (1R,2R or 1S,2S)-N-[7-chloro-6-[4-((3R,4R or 3S,3S)-4-fluoro-3-methyl-tetrahydrofuran-3-yl)piperazin-1-yl]-3-isoquinolyl]-2-tetrahydropyran-4-yl-cyclopropanecarboxamide], the IC50 was 0.0813 nM.

Consider `Cc1cc2cnc(NC(=O)C3CC3c3ccccn3)cc2cc1N1CCN(C2(C)CCOC2)CC1` (single isomer, unassigned) [Ex-9.16], for which the IC50 was 1.12 nM.

Consider `CC1(C2CCOC2)CC1C(=O)Nc1cc2cc(N3CCN(C4(C)COCC4O)CC3)c(Cl)cc2cn1` (single isomer, unassigned) [Ex-10.81, (1R,2R or 1S,2S, or 1R,2S, or 1S,2R)-N-[7-chloro-6-[4-((3R,4R or 3S,4S)-4-hydroxy-3-methyl-tetrahydrofuran-3-yl)piperazin-1-yl]-3-isoquinolyl]-2-methyl-2-tetrahydrofuran-3-yl-cyclopropanecarboxamide], for which the IC50 was 0.0813 nM.

Turning to `CC1(N2CCN(c3cc4cc(NC(=O)C5CC5)ncc4cc3Cl)CC2)COCC1O` (single isomer, unassigned) [Ex-1.2, (3R,4R or 3S,4S)-N-(7-chloro-6-(4-(4-hydroxy-3-methyltetrahydrofuran-3-yl)piperazin-1-yl)isoquinolin-3-yl)cyclopropanecarboxamide], the IC50 was 25.1 nM.

For the origin of these results see US12516039B2, “N-linked isoquinoline amides as LRRK2 inhibitors, pharmaceutical compositions, and uses thereof” (Merck Sharp & Dohme LLC, priority 2020, dated 2026).
